The text below walks through data of patent publication US12643886B2 (Ontario Institute for Cancer Research (OICR), priority 2021, dated 2026).

pIC50: −log10 of the molar value.

Holding throughout (format): biochemical
For one assay, the target named is T1, Aurora A (Homo sapiens, UniProt O14965).
T1 sequence (O14965 1-403): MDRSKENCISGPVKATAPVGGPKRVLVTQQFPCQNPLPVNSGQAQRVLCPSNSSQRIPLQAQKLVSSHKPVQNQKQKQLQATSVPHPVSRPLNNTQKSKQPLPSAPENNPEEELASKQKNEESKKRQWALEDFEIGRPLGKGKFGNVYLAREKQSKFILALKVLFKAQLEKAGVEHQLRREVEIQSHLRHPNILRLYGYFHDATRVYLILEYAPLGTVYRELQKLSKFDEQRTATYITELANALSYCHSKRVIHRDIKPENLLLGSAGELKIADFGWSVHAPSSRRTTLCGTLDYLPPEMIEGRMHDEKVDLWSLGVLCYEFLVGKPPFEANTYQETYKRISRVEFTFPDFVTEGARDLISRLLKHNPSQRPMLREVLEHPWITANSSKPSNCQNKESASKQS
Briefly: Counter-screen against Aurora A. Conditions: read-out: AUR-A (IC50). The procedure, abridged:
(§1)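 Full-length recombinant NUAK2 incubated 40 min at room temperature in 8 mM MOPS pH 7.0, 0.2 mM EDTA, 10 mM magnesium acetate, 300 μM peptide substrate and 33P-ATP. Stopped with 0.5% phosphoric acid; filter-bound label counted by scintillation. IC50 reported as ranges; NUAK1 and Aurora A served as counter-screens.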

In the next assay the target is T2, NUAK2 (h) (Homo sapiens, UniProt Q9H093).
T2 construct: This assay was done radiometrically using full-length, recombinant enzyme; purchased Eurofins
T2 sequence (Q9H093 1-628): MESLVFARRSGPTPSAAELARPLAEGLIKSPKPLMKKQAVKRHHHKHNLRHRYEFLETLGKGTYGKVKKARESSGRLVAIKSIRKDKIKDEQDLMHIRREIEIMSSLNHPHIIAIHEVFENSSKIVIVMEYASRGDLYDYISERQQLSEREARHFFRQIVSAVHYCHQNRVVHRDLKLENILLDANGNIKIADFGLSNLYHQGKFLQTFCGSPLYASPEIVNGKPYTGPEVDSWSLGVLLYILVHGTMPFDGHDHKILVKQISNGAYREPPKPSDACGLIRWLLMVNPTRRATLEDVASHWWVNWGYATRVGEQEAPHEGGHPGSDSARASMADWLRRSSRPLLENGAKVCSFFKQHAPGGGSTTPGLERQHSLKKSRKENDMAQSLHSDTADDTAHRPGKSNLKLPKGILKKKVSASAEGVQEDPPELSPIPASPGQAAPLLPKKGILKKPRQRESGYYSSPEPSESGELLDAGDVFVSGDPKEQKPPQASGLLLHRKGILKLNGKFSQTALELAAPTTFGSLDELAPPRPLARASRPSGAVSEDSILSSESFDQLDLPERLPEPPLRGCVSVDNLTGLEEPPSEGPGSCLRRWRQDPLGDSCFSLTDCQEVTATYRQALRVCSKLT
Briefly: NUAK2 enzymatic assay (radiometric, Eurofins). Conditions: full-length recombinant enzyme. The procedure, abridged:
as §1

The target of another assay is T3, NUAK1 (Homo sapiens, UniProt O60285).
T3 sequence (O60285 1-661): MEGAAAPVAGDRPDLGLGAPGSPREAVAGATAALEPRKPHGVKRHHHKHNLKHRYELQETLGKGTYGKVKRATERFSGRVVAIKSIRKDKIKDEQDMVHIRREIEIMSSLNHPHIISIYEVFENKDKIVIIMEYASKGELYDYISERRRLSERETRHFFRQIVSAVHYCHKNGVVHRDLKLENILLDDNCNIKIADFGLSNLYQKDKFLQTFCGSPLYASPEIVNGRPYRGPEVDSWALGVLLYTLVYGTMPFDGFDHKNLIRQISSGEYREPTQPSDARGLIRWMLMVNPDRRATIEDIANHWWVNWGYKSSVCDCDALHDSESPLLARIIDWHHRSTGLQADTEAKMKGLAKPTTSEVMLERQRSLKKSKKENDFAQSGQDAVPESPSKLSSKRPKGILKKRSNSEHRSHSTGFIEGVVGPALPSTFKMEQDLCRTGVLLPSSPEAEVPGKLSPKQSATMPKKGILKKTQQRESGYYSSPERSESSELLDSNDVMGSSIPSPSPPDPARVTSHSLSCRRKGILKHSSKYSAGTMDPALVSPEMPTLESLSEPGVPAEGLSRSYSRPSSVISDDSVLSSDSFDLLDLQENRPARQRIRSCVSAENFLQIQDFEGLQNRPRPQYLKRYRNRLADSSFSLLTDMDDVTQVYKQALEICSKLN
Briefly: Counter-screen against NUAK1. The procedure, abridged: as §1

With `O=C1NCc2cccc(Nc3nc(Nc4ccc(N5C[C@H]6C[C@@H]5CN6)cc4OC(F)F)ncc3Cl)c21` [Compound I-72, 7-((2-((4-((1R,4R)-2,5-diazabicyclo[2.2.1]heptan-2-yl)-2-(difluoromethoxy)phenyl)amino)-5-chloropyrimidin-4-yl)amino)isoindolin-1-one], the pIC50 on Aurora A was 6.00 to 7.00; on NUAK2 (h), 8.00 to 10.00; against NUAK1, 7.00 to 7.96.

`COc1cc2c(cc1Nc1ncc(Cl)c(Nc3cccc4c3C(=O)NC4)n1)CNCC21CC1` [Compound I-25, 7-((5-chloro-2-((6′-methoxy-2′,3′-dihydro-1′H-spiro[cyclopropane-1,4′-isoquinolin]-7′-yl)amino)pyrimidin-4-yl)amino)isoindolin-1-one]: the pIC50 on Aurora A was below 6.00; at NUAK2 (h), 7.00 to 7.96; against NUAK1 it was 7.00 to 7.96.

For the compound `O=C1NCc2cccc(Nc3nc(Nc4ccc(N5C[C@H]6CC[C@@H](C5)N6)cc4OC(F)F)ncc3Cl)c21` [Compound I-64, 7-((2-((4-((1R,5S)-3,8-diazabicyclo[3.2.1]octan-3-yl)-2-(difluoromethoxy)phenyl)amino)-5-chloropyrimidin-4-yl)amino)isoindolin-1-one], the results for the negative-log IC50 (pIC50) at Aurora A, on NUAK2 (h) and against NUAK1 were below 6.00, 8.00 to 10.00 and 7.00 to 7.96, respectively.

`COc1cc2c(cc1Nc1ncc(Cl)c(Nc3cccc4c3C(=O)NC4)n1)CCNCC2` [Compound I-26, 7-((5-chloro-2-((8-methoxy-2,3,4,5-tetrahydro-1H-benzo[d]azepin-7-yl)amino)pyrimidin-4-yl)amino)isoindolin-1-one]: the figures for the negative-log IC50 (pIC50) at Aurora A, at NUAK2 (h) and against NUAK1 were below 6.00, 7.00 to 7.96 and 7.00 to 7.96, respectively.

As for `O=C1NCc2cccc(Nc3nc(Nc4ccc(N5[C@@H]6CC[C@H]5CNC6)cc4OC(F)F)ncc3C(F)(F)F)c21` [Compound I-70, 7-((2-((4-((1R,5S)-3,8-diazabicyclo[3.2.1]octan-8-yl)-2-(difluoromethoxy)phenyl)amino)-5-(trifluoromethyl)pyrimidin-4-yl)amino)isoindolin-1-one], the negative-log IC50 (pIC50) on Aurora A was 6.00 to 7.00; on NUAK2 (h), 8.00 to 10.00; on NUAK1 it was 7.00 to 7.96.

Take `CN1CCN(c2ccc(Nc3ncc(Cl)c(Nc4cccc5c4C(=O)NC5)n3)c(OC(F)(F)F)c2)CC1` [Compound I-41, 7-((5-chloro-2-((4-(4-methylpiperazin-1-yl)-2-(trifluoromethoxy)phenyl)amino)pyrimidin-4-yl)amino)isoindolin-1-one]: the negative-log IC50 (pIC50) on Aurora A was 6.00 to 7.00; on NUAK2 (h), 7.00 to 7.96; at NUAK1 it was 6.00 to 7.00.

In the case of `O=C1NCc2cccc(Nc3nc(Nc4ccc(N5[C@@H]6CC[C@H]5CNC6)cc4OC(F)F)ncc3Cl)c21` [Compound I-75, 7-((2-((4-((1R,5S)-3,8-diazabicyclo[3.2.1]octan-8-yl)-2-(difluoromethoxy)phenyl)amino)-5-chloropyrimidin-4-yl)amino)isoindolin-1-one], the negative-log IC50 (pIC50) at Aurora A, at NUAK2 (h) and on NUAK1 was 8.00 to 10.00 throughout.

`O=C1NCc2cccc(Nc3nc(Nc4ccc(N5CCC6(CCNCC6)CC5)cc4OC(F)F)ncc3Cl)c21` [Compound I-77, 7-((5-chloro-2-((2-(difluoromethoxy)-4-(3,9-diazaspiro[5.5]undecan-3-yl)phenyl)amino)pyrimidin-4-yl)amino)isoindolin-1-one]: the negative logarithm of the IC50 (pIC50) on Aurora A was 6.00 to 7.00; on NUAK2 (h), 7.00 to 7.96; against NUAK1 it was 7.00 to 7.96.

For `Cc1c(N2CCN(C)CC2)ccc(Nc2ncc(Cl)c(Nc3cccc4c3C(=O)NC4)n2)c1Cl` [Compound I-15, 7-((5-chloro-2-((2-chloro-3-methyl-4-(4-methylpiperazin-1-yl)phenyl)amino)pyrimidin-4-yl)amino)isoindolin-1-one], the pIC50 at Aurora A is 6.00 to 7.00; on NUAK2 (h), 7.00 to 7.96; at NUAK1, 7.00 to 7.96.

Regarding `CN1CCN(c2ccc(Nc3ncc(C(F)(F)F)c(Nc4cccc5c4C(=O)NC5)n3)c(Cl)c2F)CC1` [Compound I-36, 7-((2-((2-chloro-3-fluoro-4-(4-methylpiperazin-1-yl)phenyl)amino)-5-(trifluoromethyl)pyrimidin-4-yl)amino)isoindolin-1-one], the values for the pIC50 on Aurora A, on NUAK2 (h) and against NUAK1 were 7.00 to 7.96, 7.00 to 7.96 and 8.00 to 10.00, respectively.

Take `C[C@@H]1CN(c2ccc(Nc3ncc(C(F)(F)F)c(Nc4cccc5c4C(=O)NC5)n3)c(OC(F)F)c2)C[C@H](C)N1` [Compound I-49, 7-((2-((2-(difluoromethxoy)-4-((3S,5R)-3,5-dimethylpiperazin-1-yl)phenyl)amino)-5-(trifluoromethyl)pyrimidin-4-yl)amino)isoindolin-1-one]: the pIC50 on Aurora A was below 6.00; at NUAK2 (h), 8.00 to 10.00; against NUAK1, 7.00 to 7.96.

For `CN1CCN(c2ccc(Nc3ncc(C(F)(F)F)c(Nc4cccc5c4C(=O)NC5)n3)c(OC(F)F)c2)CC1` [Compound I-79, 7-((2-((2-(difluoromethxoy)-4-(4-methylpiperazin-1-yl)phenyl)amino)-5-(trifluoromethyl)pyrimidin-4-yl)amino)isoindolin-1-one], the pIC50 on Aurora A is 6.00 to 7.00; on NUAK2 (h) it was 8.00 to 10.00; against NUAK1, 7.00 to 7.96.

For `COc1cc2c(cc1Nc1ncc(C(F)(F)F)c(Nc3cccc4c3C(=O)NC4)n1)CNCC21CC1` [Compound I-46, 7-((2-((6′-methoxy-2′,3′-dihydro-1′H-spiro[cyclopropane-1,4′-isoquinolin]-7′-yl)amino)-5-(trifluoromethyl)pyrimidin-4-yl)amino)isoindolin-1-one], the pIC50 was below 6.00 on Aurora A, 8.00 to 10.00 on NUAK2 (h) and 7.00 to 7.96 at NUAK1.

With `CN1CCN(c2ccc(Nc3ncc(Cl)c(Nc4cccc5c4C(=O)NC5)n3)cc2)CC1` [Compound I-51, 7-((5-chloro-2-((4-(4-methylpiperazin-1-yl)phenyl)amino)pyrimidin-4-yl)amino)isoindolin-1-one], the pIC50 at Aurora A, on NUAK2 (h) and against NUAK1 was 8.00 to 10.00 in each case.

For the compound `O=C1NCc2cccc(Nc3nc(Nc4cc5c(cc4Cl)CNCC5)ncc3C(F)(F)F)c21` [Compound I-52, 7-((2-((7-chloro-1,2,3,4-tetrahydroisoquinolin-6-yl)amino)-5-(trifluoromethyl)pyrimidin-4-yl)amino)isoindolin-1-one], the negative-log IC50 (pIC50) at Aurora A, at NUAK2 (h) and on NUAK1 was 7.00 to 7.96 each time.

On to `CN1CCN(c2ccc(Nc3ncc(Cl)c(Nc4cccc5c4C(=O)NC5)n3)c(OC(F)F)c2)CC1` [Compound I-1, 7-((5-chloro-2-((2-(difluoromethoxy)-4-(4-methylpiperazin-1-yl)phenyl)amino)pyrimidin-4-yl)amino)isoindolin-1-one], for which the pIC50 at Aurora A is 6.00 to 7.00; on NUAK2 (h), 8.00 to 10.00; against NUAK1, 7.00 to 7.96.

In the case of `O=C1NCc2cccc(Nc3nc(Nc4ccc(N5CCNCC5)cc4OC(F)F)ncc3Cl)c21` [Compound I-24, 7-((5-chloro-2-((2-(difluoromethoxy)-4-(piperazin-1-yl)phenyl)amino)pyrimidin-4-yl)amino)isoindolin-1-one], the negative logarithm of the IC50 (pIC50) was below 6.00 on Aurora A, 8.00 to 10.00 on NUAK2 (h) and 7.00 to 7.96 at NUAK1.
